Source: ChEMBL document CHEMBL6182856, “Novel one-/two-photon excited carbazole/quinolinium photosensitizers manifest nanomolar and hypoxia-resistant tumor photodynamic therapy by accelerating apoptosis, ferroptosis, and autophagy” (Eur J Med Chem, 2025)
The source made the active and inactive calls. The calls are words filed in the database; no cut-off is given here.

Tests used:
4T1 = assay: Cytotoxicity against mouse 4T1 cells assessed as inhibition of cell growth incubated for 24 hrs measured under normoxia conditions by MTT assay; assay type: functional, cell-based; details: 4T1, 24 h
[1] = Phototherapeutic index, ratio of IC50 for cytotoxicity against human HT-29 cells measured under normoxia conditions to IC50 for phototoxicity against human HT-29 cells measured under normoxia conditions and after one-photon excitation upon irradiation with light at 520 nm, 200 mW/cm2 for 10 mins; assay type: functional
A549 [2] = assay: Induction of ROS generation in human A549 cells assessed as intracellular superoxide level measured under normoxia conditions by DHE probe based fluorescence analysis; assay type: functional, cell-based
A549 [3] = assay: Induction of mitochondrial damage in human A549 cells assessed as increase in green fluorescence intensity measured upon light irradiation by JC-1 staining based fluorescence analysis; assay type: functional, cell-based
[4] = Photosensitizing ability of the compound in methanol assessed as singlet oxygen production by measuring quantum yield upon irradiation by DPBF based assay relative to KNKQ; assay type: functional

Structure (SMILES): CCn1c2ccc(/C=C/c3cc[n+](C)c4ccccc34)cc2c2cc(N(c3ccccc3)c3ccccc3)ccc21.[I-]
- IC50 (4T1): 1080 nM
- Ratio IC50 [1]: 51
- Activity (A549 [2]): inactive
- Activity (A549 [3]): Active
- fold change (FC) [4]: 3
